What was measured:
[1] = test system: mice (SLAC:NOD-IDDM, type 1 diabetes); assay: Blood glucose in type 1 diabetes mice, transdermal; format: in vivo, mouse; conditions: for Blood glucose, Average: average fourth to seventh week, no fasting, equal to 30 mg/kg of NSAIAs once per day for 7 weeks; for Blood glucose, Baseline: equal to 30 mg/kg of NSAIAs
Source text: The pro-drugs in this invention lower blood glucose levels in mouse models (SLAC:NOD-IDDM, type 1 diabetes, n=7). 50% acetone solution of diethylaminoethyl acetylsalicylate.acetylsalicylic acid salt (P-1, in acetone); 4-acetamidophenyl salicylyldimethylaminobutyrate.HCl (P-6), diethylaminoethyl 5-(2,4-difluorophenyl) acetylsalicylate.5-(2,4-difluorophenyl) acetylsalicylic acid salt (P-8), diethylaminoethyl salicylsalicylate.AcOH (P-9), diethylaminoethyl salicylate.AcOH (P-10), diethylaminoethyl 5-acetamido-acetylsalicylate (P-58), diethylaminoethyl acetylsalicylsalicylate. acetylsalicylsalicylic acid salt (P-59), diethylaminoethyl acetylsalicylsalicylate. acetylsalicylsalicylsalicylic acid salt (P-60) (equal to of 30 mg/kg of NSAIAs) were administered transdermally to the backs (about 1.5 cm^2) of mice (fur was shaved) once per day (at 8 am) for 7 weeks. The blood glucose levels were measured once every 3 days at 3 pm (no fasting) from the fourth week to the seventh week.

[2] = test system: rats (SLAC/GK, type 2 diabetes); assay: Blood glucose in type 2 diabetes rats, oral with food; format: in vivo, rat; conditions: for Blood glucose, Diabetic rats, Average: average second to fifth week, no fasting, equal to 20 mg/kg of NSAIAs every day for 5 weeks; for Blood glucose, Diabetic rats, Baseline: equal to 20 mg/kg of NSAIAs
Source text: (§1) 20% acetone solution of diethylaminoethyl acetylsalicylate.acetylsalicylic acid salt (P-1, in acetone); 4-acetamidophenyl salicylyldimethylaminobutyrate.HCl (P-6), diethylaminoethyl 5-(2,4-difluorophenyl) acetylsalicylate.5-(2,4-difluorophenyl) acetylsalicylic acid salt (P-8), diethylaminoethyl salicylsalicylate.AcOH (P-9), diethylaminoethyl salicylate.AcOH (P-10), diethylaminoethyl 5-acetamido-acetylsalicylate (P-58), diethylaminoethyl acetylsalicylsalicylate. acetylsalicylsalicylic acid salt (P-59), diethylaminoethyl acetylsalicylsalicylate. acetylsalicylsalicylsalicylic acid salt (P-60) (equal to of 20 mg/kg of NSAIAs) were mixed with food and were orally administered to the rats (SLAC/GK, type 2 diabetes, n=7) with food every day for 5 weeks. The blood glucose levels were measured once every 3 days at 3 pm (no fasting) from the second week to the fifth week. The blood lipid levels were measured at the end of the fifth week.

[3] = test system: rats (SLAC/GK, type 2 diabetes); assay: Blood lipid in type 2 diabetes rats, oral with food; format: in vivo, rat; conditions: for Cholesterol (HDL), Baseline / Cholesterol (total), Baseline / Triglycerides, Baseline: equal to 20 mg/kg of NSAIAs; for Cholesterol (HDL), Average / Cholesterol (total), Average / Triglycerides, Average: end of the fifth week, equal to 20 mg/kg of NSAIAs every day
Source text: as §1

[4] = test system: normal rats; assay: Blood glucose in normal rats, transdermal; format: in vivo, rat; conditions: for Blood glucose, Average: normal rats (second Average line of Table 24), average second to fifth week, equal to 20 mg/kg of NSAIAs once per day; for Blood glucose, Baseline: normal rats (second Baseline line of Table 24), equal to 20 mg/kg of NSAIAs
Source text: HPPs lower blood glucose level in rat models (SLAC/GK, type 2 diabetes, n=7). 50% acetone solution of diethylaminoethyl acetylsalicylate.acetylsalicylic acid salt (P-1, in acetone); 4-acetamidophenyl salicylyldimethylaminobutyrate.HCl (P-6), diethylaminoethyl 5-(2,4-difluorophenyl) acetylsalicylate.5-(2,4-difluorophenyl).acetylsalicylic acid salt (P-8), diethylaminoethyl salicylsalicylate.AcOH (P-9), diethylaminoethyl salicylate.AcOH (P-10), diethylaminoethyl 5-acetamido-acetylsalicylate (P-58), diethylaminoethyl acetylsalicylsalicylate.acetylsalicylsalicylic acid salt (P-59), diethylaminoethyl acetylsalicylsalicylate.acetylsalicylsalicylsalicylic acid salt (P-60) (equal to of 20 mg/kg of NSAIAs) are administered transdermally to the backs (about 1.5 cm^2) of rats (fur was shaved) once per day (at 8 am) for 5 weeks. The blood glucose levels are measured once every 3 days at 3 pm (no fasting) from the second week to the fifth week (Table 24). The blood lipid levels are measured at the end of the fifth week (Table 25). […]

[5] = test system: rats (SLAC/GK, type 2 diabetes); assay: Blood lipid in type 2 diabetes rats, transdermal; format: in vivo, rat; conditions: for Cholesterol (HDL), Baseline / Cholesterol (total), Baseline / Triglycerides, Baseline: equal to 20 mg/kg of NSAIAs; for Cholesterol (HDL), Average / Cholesterol (total), Average / Triglycerides, Average: end of the fifth week, equal to 20 mg/kg of NSAIAs once per day
Source text: (§2) HPPs lower blood glucose level in rat models (SLAC/GK, type 2 diabetes, n=7). 50% acetone solution of diethylaminoethyl acetylsalicylate.acetylsalicylic acid salt (P-1, in acetone); 4-acetamidophenyl salicylyldimethylaminobutyrate.HCl (P-6), diethylaminoethyl 5-(2,4-difluorophenyl) acetylsalicylate.5-(2,4-difluorophenyl).acetylsalicylic acid salt (P-8), diethylaminoethyl salicylsalicylate.AcOH (P-9), diethylaminoethyl salicylate.AcOH (P-10), diethylaminoethyl 5-acetamido-acetylsalicylate (P-58), diethylaminoethyl acetylsalicylsalicylate.acetylsalicylsalicylic acid salt (P-59), diethylaminoethyl acetylsalicylsalicylate.acetylsalicylsalicylsalicylic acid salt (P-60) (equal to of 20 mg/kg of NSAIAs) are administered transdermally to the backs (about 1.5 cm^2) of rats (fur was shaved) once per day (at 8 am) for 5 weeks. The blood glucose levels are measured once every 3 days at 3 pm (no fasting) from the second week to the fifth week (Table 24). The blood lipid levels are measured at the end of the fifth week (Table 25).

[6] = test system: rats (SLAC/GK, type 2 diabetes); assay: Blood glucose in type 2 diabetes rats, transdermal; format: in vivo, rat; conditions: diabetic rats (SLAC/GK); for Blood glucose, Average: average second to fifth week, no fasting, equal to 20 mg/kg of NSAIAs once per day for 5 weeks; for Blood glucose, Baseline: equal to 20 mg/kg of NSAIAs once per day
Source text: as §2

[7] = test system: normal rats; assay: Blood glucose in normal rats, oral with food; format: in vivo, rat; conditions: for Blood glucose, Normal rats, Average: average second to fifth week, equal to 20 mg/kg of NSAIAs every day; for Blood glucose, Normal rats, Baseline: equal to 20 mg/kg of NSAIAs
[8] = test system: Human breast cancer cells (BCAP-37); assay: Human breast cancer xenograft in nude mice, topical; conditions: day 42, 30 μl of 5% (1.5 mg) topically every 8 hours from day 14; for Tumor size: control 800 ± 100
Method: Human breast cancer cells (BCAP-37, 2-3 mm^3 of tumor tissue was used in each mouse) are subcutaneously xenografted into the front leg of nude mice (BALB, 12 groups, 7 mice each group). […] Then 30 μl of 5% (equal to 1.5 mg of the HPPs) diethylaminoethyl acetylsalicylate.acetylsalicylic acid salt (P-1, in acetone); 1-piperidinepropyl 2[(2,6-dichlorophenyl)amino]benzene acetate.AcOH (P-2, in water), 1-pyrrolidinepropyl 2-(3-benzoylphenyl) propionate.AcOH (P-3, in water), 4-piperidinemethyl 2-(3-phenoxyphenyl)propionate.AcOH (P-4, in water), 3-piperidinemethyl 2-(ρ-isobutylphenyl) propionate.AcOH (P-5, in water), diethylaminoethyl 1-(p-chlorobenzoyl)-5-methoxy-2-methylindole 3-acetate.AcOH (P-11, in water), 2-(4-morpholinyl)ethyl (Z)-5-fluoro-2-methyl-1-[(4-methylsulfinyl) phenylmethylene]-1H-indene-3-acetate.AcOH (P-12, in water), diethylaminoethyl

CC(=O)Nc1ccc(OC(=O)c2ccccc2OC(=O)CCCN(C)C)cc1.Cl [P-6]
Blood glucose, Average [1]: 9.5 ± 2 mmol/L
Blood glucose, Baseline [1]: 27.7 ± 4 mmol/L
Blood glucose, Diabetic rats, Average [2]: 7.5 ± 2 mmol/L
Blood glucose, Diabetic rats, Baseline [2]: 16.1 ± 4 mmol/L
Cholesterol (HDL), Baseline [3]: 1.5 ± 0.1 mmol/L
Cholesterol (total), Baseline [3]: 7.5 ± 0.4 mmol/L
Triglycerides, Baseline [3]: 5.5 ± 0.5 mmol/L
Cholesterol (HDL), Average [3]: 1.4 ± 0.2 mmol/L
Cholesterol (total), Average [3]: 4.9 ± 0.4 mmol/L
Triglycerides, Average [3]: 1.8 ± 0.2 mmol/L
Blood glucose, Average [4]: 6.5 ± 1 mmol/L
Blood glucose, Baseline [4]: 6.8 ± 1 mmol/L
Cholesterol (HDL), Baseline [5]: 1.3 ± 0.1 mmol/L
Cholesterol (total), Baseline [5]: 7.3 ± 0.5 mmol/L
Triglycerides, Baseline [5]: 5.3 ± 0.5 mmol/L
Cholesterol (HDL), Average [5]: 1.3 ± 0.2 mmol/L
Cholesterol (total), Average [5]: 4.7 ± 0.4 mmol/L
Triglycerides, Average [5]: 2.3 ± 0.2 mmol/L
Blood glucose, Average [6]: 8.5 ± 2 mmol/L
Blood glucose, Baseline [6]: 16.7 ± 4 mmol/L
Blood glucose, Normal rats, Average [7]: 6.4 ± 1 mmol/L
Blood glucose, Normal rats, Baseline [7]: 6.5 ± 1 mmol/L

CC(=O)Oc1ccc(-c2ccc(F)cc2F)cc1C(=O)O.CCN(CC)CCOC(=O)c1cc(-c2ccc(F)cc2F)ccc1OC(C)=O [P-8, diethylaminoethyl 5-(2,4-difluorophenyl) acetylsalicylate.5-(2,4-difluorophenyl) acetylsalicylic acid salt]
Blood glucose, Average [1]: 9.1 ± 1 mmol/L
Blood glucose, Baseline [1]: 29.1 ± 5 mmol/L
Blood glucose, Diabetic rats, Average [2]: 7.3 ± 1 mmol/L
Blood glucose, Diabetic rats, Baseline [2]: 16.1 ± 3 mmol/L
Cholesterol (HDL), Baseline [3]: 1.4 ± 0.2 mmol/L
Cholesterol (total), Baseline [3]: 7.8 ± 0.6 mmol/L
Triglycerides, Baseline [3]: 5.6 ± 0.7 mmol/L
Cholesterol (HDL), Average [3]: 1.3 ± 0.2 mmol/L
Cholesterol (total), Average [3]: 5.7 ± 0.3 mmol/L
Triglycerides, Average [3]: 1.8 ± 0.2 mmol/L
Blood glucose, Average [4]: 6.8 ± 1 mmol/L
Blood glucose, Baseline [4]: 7.1 ± 1 mmol/L
Cholesterol (HDL), Baseline [5]: 1.6 ± 0.2 mmol/L
Cholesterol (total), Baseline [5]: 7.6 ± 0.6 mmol/L
Triglycerides, Baseline [5]: 5.6 ± 0.6 mmol/L
Cholesterol (HDL), Average [5]: 1.5 ± 0.2 mmol/L
Cholesterol (total), Average [5]: 5.3 ± 0.3 mmol/L
Triglycerides, Average [5]: 1.9 ± 0.2 mmol/L
Blood glucose, Average [6]: 8.1 ± 1 mmol/L
Blood glucose, Baseline [6]: 17.1 ± 3 mmol/L
Blood glucose, Normal rats, Average [7]: 6.8 ± 1 mmol/L
Blood glucose, Normal rats, Baseline [7]: 7.0 ± 1 mmol/L

CC(=O)O.CC1=C(CC(=O)OCCN2CCOCC2)c2cc(F)ccc2/C1=C\c1ccc([S+](C)[O-])cc1 (stereo not shown) [P-12, 2-(4-morpholinyl)ethyl (Z)-5-fluoro-2-methyl-1-[(4-methylsulfinyl)phenylmethylene]-1H-indene-3-acetate.AcOH]
Tumor size [8]: 250 ± 50 mm^3

CC(=O)O.O=C(OCCCN1CCCC1)c1ccccc1Nc1cccc(C(F)(F)F)c1 [P-48]
Mouse weight ([8]; control 22 ± 2): 22 ± 3 g
Tumor size [8]: 290 ± 50 mm^3

CCN(CC)CCOC(=O)c1cc(NC(C)=O)ccc1OC(C)=O [P-58, diethylaminoethyl 5-acetamido-acetylsalicylate]
Blood glucose, Average [1]: 7.9 ± 1 mmol/L
Blood glucose, Baseline [1]: 27.1 ± 3 mmol/L
Blood glucose, Diabetic rats, Average [2]: 8.4 ± 1 mmol/L
Blood glucose, Diabetic rats, Baseline [2]: 17.0 ± 3 mmol/L
Cholesterol (HDL), Baseline [3]: 1.8 ± 0.1 mmol/L
Cholesterol (total), Baseline [3]: 7.9 ± 0.5 mmol/L
Triglycerides, Baseline [3]: 5.5 ± 0.5 mmol/L
Cholesterol (HDL), Average [3]: 1.6 ± 0.2 mmol/L
Cholesterol (total), Average [3]: 5.8 ± 0.4 mmol/L
Triglycerides, Average [3]: 1.8 ± 0.2 mmol/L
Blood glucose, Average [4]: 7.1 ± 1 mmol/L
Blood glucose, Baseline [4]: 6.9 ± 1 mmol/L
Cholesterol (HDL), Baseline [5]: 1.3 ± 0.1 mmol/L
Cholesterol (total), Baseline [5]: 7.8 ± 0.5 mmol/L
Triglycerides, Baseline [5]: 5.3 ± 0.5 mmol/L
Cholesterol (HDL), Average [5]: 1.4 ± 0.2 mmol/L
Cholesterol (total), Average [5]: 5.6 ± 0.4 mmol/L
Triglycerides, Average [5]: 2.4 ± 0.2 mmol/L
Blood glucose, Average [6]: 8.4 ± 1 mmol/L
Blood glucose, Baseline [6]: 17.1 ± 3 mmol/L
Blood glucose, Normal rats, Average [7]: 7.2 ± 1 mmol/L
Blood glucose, Normal rats, Baseline [7]: 6.9 ± 1 mmol/L

CC(=O)Oc1ccccc1C(=O)Oc1ccccc1C(=O)Oc1ccccc1C(=O)O.CCN(CC)CCOC(=O)c1ccccc1OC(=O)c1ccccc1OC(C)=O [P-60, diethylaminoethyl acetylsalicylsalicylate.acetylsalicylsalicylsalicylic acid salt]
Blood glucose, Average [1]: 8.6 ± 1 mmol/L
Blood glucose, Baseline [1]: 25.5 ± 3 mmol/L
Blood glucose, Diabetic rats, Average [2]: 7.9 ± 1 mmol/L
Blood glucose, Diabetic rats, Baseline [2]: 16.5 ± 3 mmol/L
Cholesterol (HDL), Baseline [3]: 1.5 ± 0.2 mmol/L
Cholesterol (total), Baseline [3]: 7.5 ± 0.5 mmol/L
Triglycerides, Baseline [3]: 5.2 ± 0.5 mmol/L
Cholesterol (HDL), Average [3]: 1.6 ± 0.2 mmol/L
Cholesterol (total), Average [3]: 5.5 ± 0.3 mmol/L
Triglycerides, Average [3]: 2.5 ± 0.2 mmol/L
Blood glucose, Average [4]: 7.5 ± 1 mmol/L
Blood glucose, Baseline [4]: 6.6 ± 1 mmol/L
Cholesterol (HDL), Baseline [5]: 1.3 ± 0.2 mmol/L
Cholesterol (total), Baseline [5]: 7.3 ± 0.6 mmol/L
Triglycerides, Baseline [5]: 5.3 ± 0.6 mmol/L
Cholesterol (HDL), Average [5]: 1.5 ± 0.2 mmol/L
Cholesterol (total), Average [5]: 5.6 ± 0.3 mmol/L
Triglycerides, Average [5]: 2.5 ± 0.2 mmol/L
Blood glucose, Average [6]: 8.6 ± 1 mmol/L
Blood glucose, Baseline [6]: 15.5 ± 3 mmol/L
Blood glucose, Normal rats, Average [7]: 7.3 ± 1 mmol/L
Blood glucose, Normal rats, Baseline [7]: 6.8 ± 1 mmol/L
